Blank lines part the entries; values can stand above or below the compound they belong to. Active and inactive are the calls of the source. No cut-off for these calls is given here.
Legend:
Canis familiaris [1] = experiment: Toxicity in beagle dog assessed as flushing at 3 mg/kg, po; assay type: organism-based, Canis lupus familiaris; parameters: dose 3 mg/kg, route oral; conditions: in vivo
[2] = target: Hydroxycarboxylic acid receptor 2 (Mus musculus, UniProt Q9EP66); experiment: Agonist activity at mouse GPR109a; assay type: functional
Canis familiaris [3] = experiment: Antidyslipidemic activity in fasted beagle dog assessed as reduction in free fatty acid level in plasma at 3 mg/kg, po after 1 hr relative to vehicle-treated control; assay type: functional, Canis lupus familiaris; parameters: scale not given: the % may be the effect or the level left
Canis familiaris [4] = experiment: Antidyslipidemic activity in po dosed fasted beagle dog assessed as reduction in free fatty acid level in plasma after 4 hr relative to vehicle-treated control; assay type: functional, organism-based; conditions: Canis lupus familiaris
[5] = target: Hydroxycarboxylic acid receptor 2 (Rattus norvegicus, UniProt Q80Z39); experiment: Agonist activity at rat GPR109a; assay type: functional
[6] = target: Hydroxycarboxylic acid receptor 3 (Homo sapiens, UniProt P49019); experiment: Agonist activity at human GPR109b; assay type: functional
Rattus norvegicus [7] = experiment: Antidyslipidemic activity in fasted Sprague-Dawley rat assessed as reduction in triglyceride level in plasma at 1 mg/kg, po after 1 hr relative to vehicle-treated control; assay type: functional; parameters: scale not given: the % may be the effect or the level left
Rattus norvegicus [8] = organism: Rattus norvegicus; experiment: Nephrotoxicity in rat assessed as increase in serum blood urea nitrogen level; assay type: toxicity, organism-based; conditions: in vivo
Mus musculus [9] = experiment: Nephrotoxicity in CD1 mouse assessed as increase in creatinine level at 100 mg/kg; assay type: toxicity, organism-based; parameters: dose 100 mg/kg; conditions: in vivo
Mus musculus [10] = experiment: Nephrotoxicity in CD1 mouse assessed as increase in serum blood urea nitrogen level at 100 mg/kg; assay type: toxicity, organism-based; parameters: dose 100 mg/kg; conditions: in vivo
Rattus norvegicus [11] = organism: Rattus norvegicus; experiment: Nephrotoxicity in rat assessed as increase in creatinine level; assay type: toxicity, organism-based; conditions: in vivo
Rattus norvegicus [12] = experiment: Antidyslipidemic activity in fasted Sprague-Dawley rat assessed as reduction in free fatty acid level in plasma at 1 mg/kg, po after 1 hr relative to vehicle-treated control; assay type: functional; parameters: scale not given: the % may be the effect or the level left
[13] = Agonist activity at dog GPR109a; assay type: functional, Canis lupus familiaris
Canis familiaris [14] = experiment: Antidyslipidemic activity in fasted beagle dog assessed as reduction in free fatty acid level in plasma at 2 mg/kg, po after 1 hr relative to vehicle-treated control; assay type: functional, Canis lupus familiaris; parameters: scale not given: the % may be the effect or the level left
Liver [15] = experiment: Intrinsic clearance in dog liver microsomes assessed per 10^6 cells; assay type: ADME, Canis lupus familiaris, Microsome
Canis familiaris [16] = experiment: Toxicity in fasted beagle dog assessed as behavioural changes at 1 to 10 mg/kg, po; assay type: organism-based, Canis lupus familiaris; parameters: dose 1-10 mg/kg, route oral; conditions: in vivo
Liver [17] = experiment: Intrinsic clearance in mouse liver microsomes assessed per 10^6 cells; assay type: ADME, Microsome
[18] = Oral bioavailability in Sprague-Dawley rat at 5 mg/kg; assay type: ADME, organism-based; conditions: in vivo
Rattus norvegicus [19] = experiment: Antidyslipidemic activity in fasted Sprague-Dawley rat assessed as reduction in free fatty acid level in plasma at 3 mg/kg, po up to 2 hrs; assay type: functional, organism-based; parameters: dose 3 mg/kg
[20] = AUC (0 to 24 hrs) in beagle dog at 1 mg/kg, po; assay type: ADME, organism-based, Canis lupus familiaris; parameters: time < 24 hr, dose 1 mg/kg, route oral; conditions: plasma
Mus musculus [21] = experiment: Nephrotoxicity in CD1 mouse at 100 mg/kg, po administered qd for 5 days measured 2 hrs post-last dose; assay type: toxicity, organism-based; parameters: dose 100 mg/kg, route oral; conditions: in vivo
Canis familiaris [22] = experiment: Toxicity in fasted beagle dog assessed as change in skin colour at 1 to 10 mg/kg, po; assay type: organism-based, Canis lupus familiaris; parameters: dose 1-10 mg/kg, route oral; conditions: in vivo
Canis familiaris [23] = experiment: Toxicity in fasted beagle dog assessed as flushing at 1 to 10 mg/kg, po; assay type: organism-based, Canis lupus familiaris; parameters: dose 1-10 mg/kg, route oral; conditions: in vivo
Cytochrome P450 2D6 = Cytochrome P450 2D6 (Homo sapiens, UniProt P10635); experiment: Inhibition of human CYP2D6; assay type: ADME
Cytochrome P450 2C9 = Cytochrome P450 2C9 (Homo sapiens, UniProt P11712); experiment: Inhibition of human CYP2C9; assay type: ADME
[24] = AUC (0 to 24 hrs) in Sprague-Dawley rat at 5 mg/kg, po; assay type: ADME, organism-based; parameters: time < 24 hr, dose 5 mg/kg, route oral; conditions: plasma
Canis familiaris [25] = experiment: Toxicity in fasted beagle dog assessed as increase in cutaneous blood flow at 30 mg/kg, po relative to control; assay type: organism-based, Canis lupus familiaris; parameters: dose 30 mg/kg, route oral; conditions: in vivo
[26] = Oral bioavailability in beagle dog at 1 mg/kg; assay type: ADME, organism-based, Canis lupus familiaris; conditions: in vivo
Rattus norvegicus [27] = experiment: Antidyslipidemic activity in po dosed fasted Sprague-Dawley rat assessed as reduction in triglyceride level in plasma; assay type: functional
[28] = target: Voltage-gated inwardly rectifying potassium channel KCNH2 (Homo sapiens, UniProt Q12809); experiment: Inhibition of human ERG up to 10 uM by patch clamp assay
Cytochrome P450 3A4 = Cytochrome P450 3A4 (Homo sapiens, UniProt P08684); experiment: Inhibition of human CYP3A4; assay type: ADME
Rattus norvegicus [29] = experiment: Antidyslipidemic activity in po dosed fasted Sprague-Dawley rat assessed as reduction in free fatty acid level in plasma; assay type: functional; conditions: for minimal effective dose: read-out: MED
Rattus norvegicus [30] = experiment: Antidyslipidemic activity in fasted Sprague-Dawley rat assessed as reduction in free fatty acid level in plasma at 3 mg/kg, po after 2 hrs; assay type: functional, organism-based; parameters: dose 3 mg/kg
Cytochrome P450 1A2 = target: T1, Cytochrome P450 1A2 (Homo sapiens, UniProt P05177); experiment: Inhibition of human CYP1A2; assay type: ADME
T1 sequence (P05177 whole entry): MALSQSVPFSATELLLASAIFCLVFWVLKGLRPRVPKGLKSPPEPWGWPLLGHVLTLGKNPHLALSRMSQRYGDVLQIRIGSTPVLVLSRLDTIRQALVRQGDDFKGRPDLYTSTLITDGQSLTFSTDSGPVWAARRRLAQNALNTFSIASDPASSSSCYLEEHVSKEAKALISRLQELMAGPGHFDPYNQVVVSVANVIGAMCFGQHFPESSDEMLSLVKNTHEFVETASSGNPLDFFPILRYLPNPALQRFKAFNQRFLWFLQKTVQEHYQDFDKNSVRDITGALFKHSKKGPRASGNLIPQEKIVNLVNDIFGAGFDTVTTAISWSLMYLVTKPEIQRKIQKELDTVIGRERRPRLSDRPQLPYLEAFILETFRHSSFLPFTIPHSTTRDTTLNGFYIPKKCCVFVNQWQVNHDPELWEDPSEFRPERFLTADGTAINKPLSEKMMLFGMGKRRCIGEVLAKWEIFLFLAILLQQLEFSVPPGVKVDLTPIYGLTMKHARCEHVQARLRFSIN

Canis familiaris [31] = experiment: Antidyslipidemic activity in fasted beagle dog assessed as reduction in free fatty acid level in plasma at 1 mg/kg, po after 1 hr relative to vehicle-treated control; assay type: functional, Canis lupus familiaris; parameters: scale not given: the % may be the effect or the level left
Liver microsomes [32] = experiment: Intrinsic clearance in rat liver microsomes assessed per 10^6 cells; assay type: ADME, Microsome
Canis familiaris [33] = experiment: Toxicity in fasted beagle dog assessed as behavioural changes at 30 mg/kg, po relative to control; assay type: organism-based, Canis lupus familiaris; parameters: dose 30 mg/kg, route oral; conditions: in vivo
Liver microsomes [34] = experiment: Intrinsic clearance in human liver microsomes assessed per 10^6 cells; assay type: ADME, Microsome
Canis familiaris [35] = experiment: Antidyslipidemic activity in po dosed fasted beagle dog assessed as reduction in free fatty acid level in plasma relative to vehicle-treated control; assay type: functional, organism-based; conditions: Canis lupus familiaris
Canis familiaris [36] = experiment: Antidyslipidemic activity in fasted beagle dog assessed as reduction in free fatty acid level in plasma at 0.3 mg/kg, po after 1 hr relative to vehicle-treated control; assay type: functional, Canis lupus familiaris; parameters: scale not given: the % may be the effect or the level left
Mus musculus [37] = organism: Mus musculus; experiment: Nephrotoxicity in CD1 mouse assessed as acute renal necrosis; assay type: toxicity, organism-based; conditions: in vivo
Rattus norvegicus [38] = experiment: Antidyslipidemic activity in fasted Sprague-Dawley rat assessed as reduction in triglyceride level in plasma at 3 mg/kg, po after 1 hr relative to vehicle-treated control; assay type: functional; parameters: scale not given: the % may be the effect or the level left
Rattus norvegicus [39] = experiment: Antidyslipidemic activity in fasted Sprague-Dawley rat assessed as reduction in free fatty acid level in plasma at 3 mg/kg, po after 1 hr relative to vehicle-treated control; assay type: functional; parameters: scale not given: the % may be the effect or the level left

Hydroxycarboxylic acid receptor 2 (Rattus norvegicus, UniProt Q80Z39), sequence (Q80Z39 whole entry): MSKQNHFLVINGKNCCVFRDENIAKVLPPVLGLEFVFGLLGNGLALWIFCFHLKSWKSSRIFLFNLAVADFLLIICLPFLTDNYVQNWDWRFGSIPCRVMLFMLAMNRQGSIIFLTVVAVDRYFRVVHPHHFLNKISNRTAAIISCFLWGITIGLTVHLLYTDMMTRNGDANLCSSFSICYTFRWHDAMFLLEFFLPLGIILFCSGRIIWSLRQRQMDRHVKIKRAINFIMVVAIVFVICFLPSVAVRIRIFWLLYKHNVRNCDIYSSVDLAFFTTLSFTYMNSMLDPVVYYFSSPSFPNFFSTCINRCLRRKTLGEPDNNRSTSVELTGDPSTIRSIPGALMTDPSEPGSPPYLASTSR
Hydroxycarboxylic acid receptor 2 (Mus musculus, UniProt Q9EP66), sequence (Q9EP66 whole entry): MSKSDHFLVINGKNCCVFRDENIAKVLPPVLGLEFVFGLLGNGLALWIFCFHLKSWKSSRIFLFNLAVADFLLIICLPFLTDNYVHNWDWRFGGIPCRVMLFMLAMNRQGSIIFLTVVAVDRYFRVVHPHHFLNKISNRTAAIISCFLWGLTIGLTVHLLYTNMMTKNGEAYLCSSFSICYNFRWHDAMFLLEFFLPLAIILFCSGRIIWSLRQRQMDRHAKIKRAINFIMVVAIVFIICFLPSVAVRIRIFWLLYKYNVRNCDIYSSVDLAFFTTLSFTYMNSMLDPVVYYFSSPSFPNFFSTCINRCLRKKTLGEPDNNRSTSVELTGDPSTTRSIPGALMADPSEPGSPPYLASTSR
Hydroxycarboxylic acid receptor 3, sequence (P49019 whole entry): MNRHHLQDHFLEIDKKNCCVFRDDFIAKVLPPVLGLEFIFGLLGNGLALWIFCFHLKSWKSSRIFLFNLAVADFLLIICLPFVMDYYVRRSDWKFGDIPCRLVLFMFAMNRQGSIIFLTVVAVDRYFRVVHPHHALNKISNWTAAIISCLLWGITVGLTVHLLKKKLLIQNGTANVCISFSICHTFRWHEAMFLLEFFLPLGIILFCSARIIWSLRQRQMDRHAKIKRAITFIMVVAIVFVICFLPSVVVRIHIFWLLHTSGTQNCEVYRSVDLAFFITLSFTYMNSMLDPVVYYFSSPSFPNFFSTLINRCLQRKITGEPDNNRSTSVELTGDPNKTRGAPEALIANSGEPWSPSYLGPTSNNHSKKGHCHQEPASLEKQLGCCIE
Cytochrome P450 2C9, sequence (P11712 whole entry): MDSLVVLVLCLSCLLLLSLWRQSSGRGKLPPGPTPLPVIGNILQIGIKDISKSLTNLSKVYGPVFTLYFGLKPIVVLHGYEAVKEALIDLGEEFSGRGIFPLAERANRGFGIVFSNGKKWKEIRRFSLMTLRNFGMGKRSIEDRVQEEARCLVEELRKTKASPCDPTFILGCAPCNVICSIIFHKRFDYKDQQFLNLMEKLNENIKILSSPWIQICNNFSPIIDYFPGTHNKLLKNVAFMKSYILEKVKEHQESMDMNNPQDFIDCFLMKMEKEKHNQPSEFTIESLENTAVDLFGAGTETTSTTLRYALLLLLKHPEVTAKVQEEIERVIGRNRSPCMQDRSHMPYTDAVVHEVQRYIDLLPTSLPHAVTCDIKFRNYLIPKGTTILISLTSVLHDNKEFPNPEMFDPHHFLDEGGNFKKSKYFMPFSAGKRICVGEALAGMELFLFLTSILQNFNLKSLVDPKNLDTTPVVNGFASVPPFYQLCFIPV
Cytochrome P450 3A4, sequence (P08684 whole entry): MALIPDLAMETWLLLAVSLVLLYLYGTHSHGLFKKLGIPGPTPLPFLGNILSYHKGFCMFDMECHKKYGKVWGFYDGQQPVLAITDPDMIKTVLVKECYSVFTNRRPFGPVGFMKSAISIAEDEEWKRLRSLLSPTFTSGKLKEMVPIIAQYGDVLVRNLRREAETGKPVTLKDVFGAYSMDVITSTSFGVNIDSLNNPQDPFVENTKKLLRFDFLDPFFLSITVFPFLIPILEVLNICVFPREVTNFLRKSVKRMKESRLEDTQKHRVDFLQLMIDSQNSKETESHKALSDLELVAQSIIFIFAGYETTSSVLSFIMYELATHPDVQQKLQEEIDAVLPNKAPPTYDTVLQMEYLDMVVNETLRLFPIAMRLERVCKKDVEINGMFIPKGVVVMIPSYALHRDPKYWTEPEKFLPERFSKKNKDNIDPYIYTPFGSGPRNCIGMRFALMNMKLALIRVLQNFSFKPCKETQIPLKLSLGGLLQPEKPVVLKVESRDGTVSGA
Voltage-gated inwardly rectifying potassium channel KCNH2, sequence (Q12809 whole entry): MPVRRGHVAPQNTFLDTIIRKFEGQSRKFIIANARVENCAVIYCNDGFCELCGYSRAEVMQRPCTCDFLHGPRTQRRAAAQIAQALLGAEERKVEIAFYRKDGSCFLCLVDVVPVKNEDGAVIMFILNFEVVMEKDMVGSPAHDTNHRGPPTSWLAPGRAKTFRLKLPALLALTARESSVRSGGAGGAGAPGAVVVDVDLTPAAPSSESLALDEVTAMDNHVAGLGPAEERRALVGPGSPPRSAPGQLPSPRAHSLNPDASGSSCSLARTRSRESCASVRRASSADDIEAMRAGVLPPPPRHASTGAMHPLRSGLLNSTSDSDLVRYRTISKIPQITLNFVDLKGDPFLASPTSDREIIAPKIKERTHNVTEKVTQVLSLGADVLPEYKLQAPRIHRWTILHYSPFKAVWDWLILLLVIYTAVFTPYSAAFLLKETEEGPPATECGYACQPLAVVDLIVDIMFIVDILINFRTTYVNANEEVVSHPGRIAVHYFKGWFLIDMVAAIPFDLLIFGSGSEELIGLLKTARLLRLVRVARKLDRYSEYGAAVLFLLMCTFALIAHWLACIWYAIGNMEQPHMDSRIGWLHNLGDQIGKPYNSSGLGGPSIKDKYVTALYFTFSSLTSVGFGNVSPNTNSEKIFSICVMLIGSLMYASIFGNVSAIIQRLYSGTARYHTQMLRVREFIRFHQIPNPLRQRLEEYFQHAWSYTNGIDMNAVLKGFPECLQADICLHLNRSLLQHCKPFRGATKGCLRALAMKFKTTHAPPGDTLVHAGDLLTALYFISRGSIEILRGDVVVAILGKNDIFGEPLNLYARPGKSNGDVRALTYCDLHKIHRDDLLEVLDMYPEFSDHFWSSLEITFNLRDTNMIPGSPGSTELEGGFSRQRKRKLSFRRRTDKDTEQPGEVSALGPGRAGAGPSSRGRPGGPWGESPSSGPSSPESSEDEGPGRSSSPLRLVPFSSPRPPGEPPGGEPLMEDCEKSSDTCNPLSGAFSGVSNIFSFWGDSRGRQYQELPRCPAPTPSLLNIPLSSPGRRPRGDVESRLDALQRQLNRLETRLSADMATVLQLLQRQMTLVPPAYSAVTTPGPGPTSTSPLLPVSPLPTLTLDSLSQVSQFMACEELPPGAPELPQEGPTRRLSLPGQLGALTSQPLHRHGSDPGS
Cytochrome P450 2D6, sequence (P10635 whole entry): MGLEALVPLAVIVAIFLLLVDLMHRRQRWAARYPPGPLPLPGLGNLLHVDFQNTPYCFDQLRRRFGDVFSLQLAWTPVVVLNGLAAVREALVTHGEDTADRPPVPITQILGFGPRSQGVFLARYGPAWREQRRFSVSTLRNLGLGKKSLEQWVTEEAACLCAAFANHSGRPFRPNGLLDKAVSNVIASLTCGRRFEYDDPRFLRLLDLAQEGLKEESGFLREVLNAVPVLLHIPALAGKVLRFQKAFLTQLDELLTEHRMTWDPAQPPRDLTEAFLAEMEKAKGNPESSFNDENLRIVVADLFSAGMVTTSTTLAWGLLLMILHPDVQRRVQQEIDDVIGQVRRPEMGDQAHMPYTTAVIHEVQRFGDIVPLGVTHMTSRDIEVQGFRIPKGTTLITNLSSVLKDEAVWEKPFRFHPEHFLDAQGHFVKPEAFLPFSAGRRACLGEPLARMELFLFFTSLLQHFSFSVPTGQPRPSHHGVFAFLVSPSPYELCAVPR

SMILES: O=c1[nH]c(=O)c2c(CCCC3CC3)cc(=O)oc2[nH]1
- Activity (Rattus norvegicus [8]): Non-toxic
- Activity (Mus musculus [9]): Toxic
- Activity (Mus musculus [10]): Toxic
- EC50 [5]: 0.002 µM
- Activity (Rattus norvegicus [11]): Non-toxic
- Activity (Rattus norvegicus [12]): 58%
- EC50 [13]: 0.001 µM
- EC50 [6]: 0.14 µM
- Activity (Canis familiaris [14]): 80%
- Activity (Rattus norvegicus [7]): 49%

SMILES: O=C(O)c1cccnc1 [NIACIN]
- Activity (Canis familiaris [3]): 38%
- minimal effective dose (Rattus norvegicus [29]): 10 mg/kg
- EC50 [13]: 0.031 µM
- EC50 [6]: > 10 µM

SMILES: CCCCc1cc(=O)oc2[nH]c(=O)[nH]c(=O)c12
- Activity (Rattus norvegicus [8]): Non-toxic
- EC50 [2]: 0.012 µM
- Activity (Mus musculus [9]): Toxic
- Activity (Mus musculus [10]): Toxic
- EC50 [5]: 0.008 µM
- Activity (Canis familiaris [35]): Dose-dependent effect
- Activity (Canis familiaris [36]): 90%
- Activity (Rattus norvegicus [11]): Non-toxic
- Activity (Rattus norvegicus [12]): 29%
- EC50 [13]: 0.016 µM
- EC50 [6]: 0.19 µM
- Activity (Mus musculus [37]): Toxic
- Activity (Rattus norvegicus [7]): 40%

SMILES: CC(C)CCc1cc(=O)oc2[nH]c(=O)[nH]c(=O)c12
- Activity (Rattus norvegicus [38]): 16%
- EC50 [6]: 1.3 µM
- Activity (Rattus norvegicus [39]): 15%

These reach a lower EC50 [6]. Values come first.

- CLH (Liver [15]): < 1 µL/min
- CLH (Liver [17]): 8.7 µL/min
- bioavailability [18]: 76%
- EC50 [2]: 0.006 µM
- AUC(0-t) at 24 h [20]: 7.2 µM·h
- IC50 (Cytochrome P450 2D6): > 50 µM
- IC50 (Cytochrome P450 2C9): > 50 µM
- AUC(0-t) at 24 h [24]: 7.6 µM·h
- EC50 [5]: 0.008 µM
- bioavailability [26]: 40%
- IC50 (Cytochrome P450 3A4): > 50 µM
- EC50 [13]: 0.005 µM
- EC50 [6]: 0.096 µM
- IC50 (Cytochrome P450 1A2): > 50 µM
- CLH (Liver microsomes [32]): 10 µL/min
- CLH (Liver microsomes [34]): 1.6 µL/min
SMILES: CC1(CCCc2cc(=O)oc3[nH]c(=O)[nH]c(=O)c23)CC1 [SCH-900271]
- Activity (Canis familiaris [16]): Non-toxic
- Activity (Rattus norvegicus [19]): Active
- Activity (Mus musculus [21]): Non-toxic
- Activity (Canis familiaris [22]): Non-toxic
- Activity (Canis familiaris [23]): Non-toxic
- fold change (FC) (Canis familiaris [25]): 5
- Activity (Rattus norvegicus [27]): Dose-dependent effect
- ED50 (Rattus norvegicus [27]): 0.5 mg/kg
- minimal effective dose (Rattus norvegicus [27]; read-out: MED): 3 mg/kg
- inhibition (INH) [28]: Not Active
- Activity (Rattus norvegicus [29]): Dose-dependent effect
- ED50 (Rattus norvegicus [29]): 0.5 mg/kg
- minimal effective dose (Rattus norvegicus [29]): 3 mg/kg
- Activity (Rattus norvegicus [12]): 53%
- Activity (Rattus norvegicus [30]): inactive
- Activity (Canis familiaris [31]): 50%
- Activity (Rattus norvegicus [7]): 53%
- Activity (Canis familiaris [33]): Non-toxic

- EC50 [2]: 0.004 µM
- EC50 [5]: 0.005 µM
- EC50 [6]: 0.067 µM
SMILES: O=c1[nH]c(=O)c2c(CCC3CCC3)cc(=O)oc2[nH]1
- Activity (Rattus norvegicus [8]): Non-toxic
- Activity (Mus musculus [9]): Toxic
- Activity (Mus musculus [10]): Toxic
- Activity (Rattus norvegicus [11]): Non-toxic
- Activity (Rattus norvegicus [12]): 50%
- Activity (Rattus norvegicus [7]): 31%

- EC50 [2]: 0.005 µM
- EC50 [5]: 0.002 µM
- EC50 [6]: 0.059 µM
SMILES: O=c1[nH]c(=O)c2c(CCCC(F)F)cc(=O)oc2[nH]1
- Activity (Canis familiaris [1]): Toxic
- Activity (Canis familiaris [3]): 80%
- Activity (Canis familiaris [4]): inactive
- Activity (Rattus norvegicus [7]): 59%
